According to patent publication US9961899B2, “Nematicidal aqueous suspension concentrate compositions” (Monsanto Technology LLC, priority 2012, dated 2018):

Tests used:
Assay type in all cases: physicochemical
[1] = Grinding analysis of polymorphs (ball mill, XRD); conditions: ball mill 2 minutes at 4800 oscillations per minute
Description: Batches of 3-phenyl-5-(thiophen-2-yl)-1,2,4-oxadiazole polymorphic Forms I and II were ground using a CRESCENT WIG-L-BUG ball mill for 2 minutes at 4800 oscillations per minute (3.2 m/s) in two separate experiments. […] The Form II used in this experiment was obtained by recrystallization from the melt of Form I, as described in Example 14, above, […]

[2] = Mechanical pressure analysis of polymorphs (CARVER press, XRD); conditions: approximately 15,000 psi for approximately 20 seconds
Description: Batches of 3-phenyl-5-(thiophen-2-yl)-1,2,4-oxadiazole polymorphic Forms I and II were placed in a CARVER press and compressed at approximately 15,000 psi for approximately 20 seconds in two separate experiments. XRD analysis was performed on the samples. The resulting XRD pattern matched the starting material in both experiments, as shown in FIGS. 5A and 5B for Forms I and II, respectively. […] The Form II used in this experiment was obtained by recrystallization from the melt of Form I, as described in Example 14, above.

[3] = Storage stability of polymorphs (humidity chambers / ambient, XRD)
From the text: To determine the storage stability and/or hydrate formation of 3-phenyl-5-(thiophen-2-yl)-1,2,4-oxadiazole Form I material during storage at ambient conditions, samples were monitored in two static humidity chambers. […] Solutions of saturated potassium chloride (84% RH) and sodium chloride (75% RH) salts at ambient temperature were used.

[4] = Estimation of polymorph transition temperature from DSC data; conditions: calculated from DSC thermal data
Description: Polymorphic Forms I and II of 3-phenyl-5-(thiophen-2-yl)-1,2,4-oxadiazole, as well as a 50/50 mixture thereof, were analyzed by DSC at a slow heating rate of 2° C. per minute, with similar sample sizes. […] Form II has a higher melting temperature and a lower enthalpy of fusion. […] FIGS. 9A through 9C show the relevant DSC thermograms for Form I, Form II, and a mixture of Forms I and II, respectively.
The thermal data using the procedure set forth above was used to calculate an approximate value for the transition temperature of conversion of Forms I and II, resulting in an estimated transition temperature value of 102° C.

polymorphic transformation on grinding (XRD) [1] | storage stability (XRD) ([3]; scintillation vial, ambient conditions, approximately 6 days) | transition temperature between Forms I and II [4] | Compound | polymorphic change under mechanical pressure (XRD) [2] | storage stability / hydrate formation (XRD) ([3]; 75 and 84% RH, ambient temperature, 4 weeks)
no transformation was observed | – | – | c1ccc(-c2noc(-c3cccs3)n2)cc1 [Form I, 3-phenyl-5-(thiophen-2-yl)-1,2,4-oxadiazole] | did not reveal any changes in the polymorphic form | does not form a hydrate and appears to be thermodynamically stable over time
transformed to Form I | showed signs of transformation to Form I | – | c1ccc(-c2noc(-c3cccs3)n2)cc1 [Form II, 3-phenyl-5-(thiophen-2-yl)-1,2,4-oxadiazole] | did not reveal any changes in the polymorphic form | –
– | – | approximately 102 °C | c1ccc(-c2noc(-c3cccs3)n2)cc1 [Ia-i, 3-phenyl-5-(thiophen-2-yl)-1,2,4-oxadiazole] | – | –
